Source: patent publication US20260242414A1, “PEPTIDE EXPRESSION CONSTRUCTS AND USES THEREOF” (KYOTO PREFECTURAL PUBLIC UNIVERSITY CORPORATION, priority 2023, published 2026)

Key:
[1] = tested on: GFPP1-10 expressing A549 cells; test: mCherry and GFP expression in presence and absence of TMP; type: cell-based; conditions: cells transfected with mCherry-DHFR-P2A-GFPβ11, following addition of TMP, FIG. 7B
Description: The mCherry-DHFR-P2A-GFPβ11 peptide expression unit was introduced into GFPP1-10 expressing A549 cells and mCherry and GFP expression levels were examined in the presence and absence of TMP.
Indeed, the percentage of cells expressing mCherry upon TMP treatment was similar in cells transfected with an m-Cherry only plasmid and cells transfected with a plasmid comprising the mCherry-DHFR-P2A-GFPβ11 peptide expression unit (FIGS. 7C and 7E).

H9c2 cells [2] = test: Doxorubicin-induced hyperfission (MiNA) and cell death (DAPI/annexin5 FACS); type: cell-based
Protocol: The anti-apoptotic effect of peptide expression unit mRNA comprising the P110 coding sequence was assessed in H9c2 cells upon doxorubicin exposure, a treatment that induces mitochondrial stress, hyperfission, and cell death. Briefly, H92c cells were seeded on day 0 and lipofected with an mRNA of a peptide expression unit comprising P110 coding sequence on day 1 and treated with TMP. After 12 hours, the medium was changed, and the cells were treated with doxorubicin for 3 to 6 hours. As with LPS exposure assessments in Example 4, the effect of P110 on hyperfission was assessed via mitotracker green staining, followed by MiNA.
The increase in doxorubicin-induced fission was accompanied by an increase in footprint, a measure of mitochondrial mass, due to the expression of P110 from mRNA expression units, and by an increase in the length, number, and area of branching (FIGS. 9A-9F).

Drp1-Fis1 = test: Immunoprecipitation with Fis1 followed by immunoblotting with Drp1; type: cell-based; conditions: doxorubicin treatment, FIG. 10I-10K
Drp1-Fis1, sequence (O00429 whole entry): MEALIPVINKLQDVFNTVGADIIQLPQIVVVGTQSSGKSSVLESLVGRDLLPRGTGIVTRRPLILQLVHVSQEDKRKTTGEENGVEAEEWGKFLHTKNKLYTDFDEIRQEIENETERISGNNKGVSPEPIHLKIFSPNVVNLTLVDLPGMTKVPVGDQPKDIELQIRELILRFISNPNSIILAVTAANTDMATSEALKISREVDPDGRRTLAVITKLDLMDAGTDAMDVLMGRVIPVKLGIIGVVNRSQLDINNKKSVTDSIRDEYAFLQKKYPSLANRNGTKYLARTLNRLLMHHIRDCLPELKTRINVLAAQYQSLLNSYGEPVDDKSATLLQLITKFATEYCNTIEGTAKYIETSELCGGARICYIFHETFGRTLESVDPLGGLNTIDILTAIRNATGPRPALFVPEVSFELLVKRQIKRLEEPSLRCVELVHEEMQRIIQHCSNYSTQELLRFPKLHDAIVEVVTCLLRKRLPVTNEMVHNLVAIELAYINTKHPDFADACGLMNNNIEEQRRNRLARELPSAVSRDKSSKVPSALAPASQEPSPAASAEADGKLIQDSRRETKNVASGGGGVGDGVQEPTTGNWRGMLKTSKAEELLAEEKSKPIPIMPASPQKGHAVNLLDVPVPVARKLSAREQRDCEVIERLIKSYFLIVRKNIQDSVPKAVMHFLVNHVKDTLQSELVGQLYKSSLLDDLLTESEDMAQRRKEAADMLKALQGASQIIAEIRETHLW
Protocol: Association of Drp1 and Fis1 is an intracellular PPI that is associated with mitochondrial dysfunction. To determine whether interaction of Fis1 and Drp1 was associated with the accumulation of Drp1 at the mitochondrial membrane, immunoprecipitation with Fis1 followed by immunoblotting with Drp1 was performed.

H9c2 cells [3] = test: Western blot of apoptosis-associated proteins (cleaved caspase-3, cytochrome c, mitochondrial Drp1); type: cell-based; conditions: for Drp1 in mitochondrial fractions (accumulation/aggregation): doxorubicin exposure, FIG. 10G-10H
Protocol: (§1) P110-expressing cells counteracted doxorubicin-induced apoptosis as well as gene transfer-associated induction of cell death (FIGS. 10A-10B). Next, doxorubicin-induced activation of caspase-3, which is a cysteine-aspartic acid protease that plays a central role in the execution-phase of cell apoptosis, was evaluated.
Hyperfission-associated release of cytochrome c from mitochondria triggers apoptosis; therefore, the release of cytochrome c in response to doxorubicin was evaluated. […] Given that P110 inhibits the recruitment of Drp1 to the mitochondrial membrane during fission, Drp1 in mitochondrial fractions were evaluated to determine whether the introduction of P110 mRNA affected this mechanism.

H9c2 cells [4] = test: Mitochondrial respiration, Seahorse XF Cell Mito Stress Test flux analysis; type: cell-based; conditions: doxorubicin treatment; for mitochondrial respiration (oxygen consumption rate): FIG. 9I; for basal respiration: FIG. 9J; for ATP production: FIG. 9J-9M; for maximum respiration: FIG. 9K; for spare respiratory capacity: FIG. 9M; for proton leakage: FIG. 9N; for non-mitochondrial oxygen consumption: FIG. 9O
Protocol: Next, the effect of P110 expression on mitochondrial hyperfission was evaluated in the context of mitochondrial respiratory function. Briefly, oligomycin (2 μM), carbonyl cyanide p-trifluoromethoxyphenyl hydrazone (FCCP, 2 μM) and rotenone/antimycin A (0.5 μM), which were adjusted using the reagents in the Seahorse XF Cell Mito Stress Test Kit (103015-100, Agilent Technologies), were sequentially added to each well with 1×10^5 cells after baseline measurements with an XFe96 extracellular flux analyzer (Agilent Technologies, Santa Clara, CA, USA), and data were presented as oxygen consumption rate (pmol/min).

H9c2 cells [5] = test: LPS-induced hyperfission: mitotracker green/MiNA, MitoSOX, TMRM; type: cell-based; conditions: for mitochondrial ROS (MitoSOX): FIG. 8J-8K
Protocol: Next, lipopolysaccharide (LPS) was used as an external stressor to trigger hyperfission. Briefly, H92c cells were seeded on day 0 and lipofected with an mRNA of a peptide expression unit comprising P110 coding sequence on day 1 and treated with TMP. After 12 hours, the medium was changed, and the cells were treated with LPS for 12 hours and mitochondrial morphology of cells was evaluated using mitotracker green staining and Mitochondrial Network Analysis (MiNA). LPS-induced changes in mitochondrial reactive oxygen species (ROS) production were evaluated using MitoSOX staining. LPS-induced changes in mitochondrial membrane potential were evaluated using TMRM staining. For the purposes of this assessment, mCherry-positive cells were assumed to express transgenic P110, whereas mCherry-negative cells were assumed to lack transgenic P110 and were assessed separately (FIG. 8D). […] LPS treatment was associated with an increase in mitochondrial ROS, which was inhibited in P110-expressing cells (FIGS. 8J-8K), and with an increase in mitochondrial membrane potential per unit volume (FIGS. 8L-8N). Taken together, expression of P110 in cells suppressed mitophagy-related changes induced by LPS treatment.

H9c2 cells [6] = test: Doxorubicin-induced apoptosis, FACS with DAPI and Annexin V; type: cell-based; conditions: doxorubicin-treated cells, FIG. 10A-10B
Protocol: as §1

[7] = target: GFP β strand 1-10 (GFPβ1-10); test: cell-based or functional assay
[8] = doxorubicin 3 to 6 hours, FIG. 9A-9F

Compound | Drp1 co-immunoprecipitated with Fis1 (Drp1-Fis1) | Drp1 in mitochondrial fractions (accumulation/aggregation) (H9c2 cells [3]) | mitochondrial respiration (oxygen consumption rate) (H9c2 cells [4]) | basal respiration (H9c2 cells [4]) | ATP production (H9c2 cells [4]) | maximum respiration (H9c2 cells [4]) | spare respiratory capacity (H9c2 cells [4]) | proton leakage (H9c2 cells [4]) | non-mitochondrial oxygen consumption (H9c2 cells [4]) | mitochondrial ROS (MitoSOX) (H9c2 cells [5]; LPS treatment 12 hours) | further results
COc1cc(Cc2cnc(N)nc2N)cc(OC)c1OC [TMP, trimethoprim] |  |  |  |  |  |  |  |  |  |  | mCherry expression (FACS) [1]: increased sharply
COc1cccc2c1C(=O)c1c(O)c3c(c(O)c1C2=O)C[C@@](O)(C(=O)CO)C[C@@H]3O[C@H]1C[C@H](N)[C@H](O)[C@H](C)O1 [doxorubicin] | significantly enhanced | strong accumulation | decreased | significantly decreased | significantly decreased | significantly decreased | significantly decreased | decrease | significantly decreased |  | cell death, DAPI/annexin5 double positive cells (FACS) (H9c2 cells [2]; doxorubicin-treated H9c2 cells, FIG. 9G-9H): ~15 % of cells
DLLPRGT [P110] | restored to almost control levels | significantly prevented | attenuated | significant attenuation | significant attenuation | significant attenuation | comparable to that observed in untreated control cells | slightly improved | significant attenuation | inhibited | indications of hyperfission: branching length, area of branching points, number of branching points (MiNA) (H9c2 cells [5]; mCherry-positive cells, LPS 12 hours, FIG. 8D-8I): reversed indications of hyperfission; footprint, a measure of mitochondrial mass (MiNA) (H9c2 cells [2]; [8]): increase; length, number, and area of branching (MiNA) (H9c2 cells [2]; [8]): increase; non-mitochondrial apoptotic pathways (H9c2 cells [3]; doxorubicin): unaffected; cytochrome c release (H9c2 cells [3]; doxorubicin, FIG. 10E-10F): completely suppressed; cleaved caspase-3 expression (western blot) (H9c2 cells [3]; effects of gene transfer method and doxorubicin, FIG. 10C-10D): reduced; doxorubicin-induced apoptosis (DAPI/Annexin V FACS) (H9c2 cells [6]): counteracted
GFP β strand 11 (GFPβ11) (peptide) |  |  |  |  |  |  |  |  |  |  | GFP-positive fraction of mCherry-positive cells (split GFP complementation), FACS, H9c2 cells [7]: 40%
lipopolysaccharide [LPS] |  |  |  |  |  |  |  |  |  | increase | mitochondrial membrane potential per unit volume (TMRM) (H9c2 cells [5]; LPS treatment 12 hours, FIG. 8L-8N): increase
